# Measurements published in the NIST ThermoML archive (doi:10.1016/j.fluid.2016.08.014).
# Numbers after ± are expanded uncertainties.
# How the values were obtained:
# [1] = Liquid, Vibrating tube method
# [2] = refractive index (Na D-line) (dimensionless); settings: 298.15 K; 101.33 kPa; Liquid; Standard Abbe refractometry
structure (smiles),measurement,setting,value
CN(C)C=O [dimethylformamide],mass density,"[1]; 293.15 K, 100 kPa",949 ± 1 kg/m3
same,mass density,"[1]; 293.15 K, 2500 kPa",950 ± 1 kg/m3
same,mass density,"[1]; 293.15 K, 5100 kPa",952 ± 1 kg/m3
same,mass density,"[1]; 293.15 K, 10100 kPa",955 ± 1 kg/m3
same,mass density,"[1]; 293.15 K, 15100 kPa",958 ± 1 kg/m3
same,mass density,"[1]; 293.15 K, 20100 kPa",960 ± 1 kg/m3
same,mass density,"[1]; 293.15 K, 25000 kPa",963 ± 1 kg/m3
same,mass density,"[1]; 293.15 K, 30300 kPa",966 ± 1 kg/m3
same,mass density,"[1]; 298.15 K, 101.33 kPa",943.978 ± 4 kg/m3
same,mass density,"[1]; 303.15 K, 100 kPa",939 ± 1 kg/m3
same,mass density,"[1]; 303.15 K, 2500 kPa",941 ± 1 kg/m3
same,mass density,"[1]; 303.15 K, 5100 kPa",943 ± 1 kg/m3
same,mass density,"[1]; 303.15 K, 10000 kPa",940 ± 10 kg/m3
same,mass density,"[1]; 303.15 K, 15100 kPa",949 ± 1 kg/m3
same,mass density,"[1]; 303.15 K, 20100 kPa",951 ± 1 kg/m3
same,mass density,"[1]; 303.15 K, 25000 kPa",954 ± 1 kg/m3
same,mass density,"[1]; 303.15 K, 30100 kPa",957 ± 1 kg/m3
same,mass density,"[1]; 313.15 K, 100 kPa",930 ± 1 kg/m3
same,mass density,"[1]; 313.15 K, 2600 kPa",931 ± 1 kg/m3
same,mass density,"[1]; 313.15 K, 5100 kPa",933 ± 1 kg/m3
same,mass density,"[1]; 313.15 K, 10000 kPa",936 ± 1 kg/m3
same,mass density,"[1]; 313.15 K, 15100 kPa",939 ± 1 kg/m3
same,mass density,"[1]; 313.15 K, 20100 kPa",942 ± 1 kg/m3
same,mass density,"[1]; 313.15 K, 25000 kPa",945 ± 1 kg/m3
same,mass density,"[1]; 313.15 K, 30100 kPa",948 ± 1 kg/m3
same,mass density,"[1]; 323.15 K, 100 kPa",920 ± 1 kg/m3
same,mass density,"[1]; 323.15 K, 2500 kPa",922 ± 1 kg/m3
same,mass density,"[1]; 323.15 K, 5100 kPa",924 ± 1 kg/m3
same,mass density,"[1]; 323.15 K, 10000 kPa",927 ± 1 kg/m3
same,mass density,"[1]; 323.15 K, 15100 kPa",930 ± 1 kg/m3
same,mass density,"[1]; 323.15 K, 20100 kPa",934 ± 1 kg/m3
same,mass density,"[1]; 323.15 K, 25100 kPa",937 ± 1 kg/m3
same,mass density,"[1]; 323.15 K, 30400 kPa",940 ± 1 kg/m3
same,mass density,"[1]; 333.15 K, 200 kPa",910 ± 1 kg/m3
same,mass density,"[1]; 333.15 K, 2600 kPa",912 ± 1 kg/m3
same,mass density,"[1]; 333.15 K, 5000 kPa",914 ± 1 kg/m3
same,mass density,"[1]; 333.15 K, 10200 kPa",918 ± 1 kg/m3
same,mass density,"[1]; 333.15 K, 15000 kPa",921 ± 1 kg/m3
same,mass density,"[1]; 333.15 K, 20300 kPa",925 ± 1 kg/m3
same,mass density,"[1]; 333.15 K, 25100 kPa",928 ± 1 kg/m3
same,mass density,"[1]; 333.15 K, 30200 kPa",931 ± 1 kg/m3
same,mass density,"[1]; 343.15 K, 200 kPa",900 ± 1 kg/m3
same,mass density,"[1]; 343.15 K, 2500 kPa",903 ± 1 kg/m3
same,mass density,"[1]; 343.15 K, 5200 kPa",905 ± 1 kg/m3
same,mass density,"[1]; 343.15 K, 10000 kPa",908 ± 1 kg/m3
same,mass density,"[1]; 343.15 K, 15000 kPa",912 ± 1 kg/m3
same,mass density,"[1]; 343.15 K, 20100 kPa",916 ± 1 kg/m3
same,mass density,"[1]; 343.15 K, 25100 kPa",919 ± 1 kg/m3
same,mass density,"[1]; 343.15 K, 30400 kPa",922 ± 1 kg/m3
same,mass density,"[1]; 353.15 K, 200 kPa",890 ± 1 kg/m3
same,mass density,"[1]; 353.15 K, 2500 kPa",893 ± 1 kg/m3
same,mass density,"[1]; 353.15 K, 5100 kPa",895 ± 1 kg/m3
same,mass density,"[1]; 353.15 K, 10100 kPa",899 ± 1 kg/m3
same,mass density,"[1]; 353.15 K, 15000 kPa",903 ± 1 kg/m3
same,mass density,"[1]; 353.15 K, 20100 kPa",907 ± 1 kg/m3
same,mass density,"[1]; 353.15 K, 25100 kPa",910 ± 1 kg/m3
same,mass density,"[1]; 353.15 K, 30200 kPa",914 ± 1 kg/m3
same,mass density,"[1]; 363.15 K, 200 kPa",881 ± 1 kg/m3
same,mass density,"[1]; 363.15 K, 2600 kPa",883 ± 1 kg/m3
same,mass density,"[1]; 363.15 K, 5000 kPa",885 ± 1 kg/m3
same,mass density,"[1]; 363.15 K, 10100 kPa",890 ± 1 kg/m3
same,mass density,"[1]; 363.15 K, 15100 kPa",894 ± 1 kg/m3
same,mass density,"[1]; 363.15 K, 20100 kPa",897 ± 1 kg/m3
same,mass density,"[1]; 363.15 K, 25100 kPa",901 ± 1 kg/m3
same,mass density,"[1]; 363.15 K, 30100 kPa",905 ± 1 kg/m3
same,mass density,"[1]; 373.15 K, 100 kPa",871 ± 1 kg/m3
same,mass density,"[1]; 373.15 K, 2600 kPa",873 ± 1 kg/m3
same,mass density,"[1]; 373.15 K, 5000 kPa",876 ± 1 kg/m3
same,mass density,"[1]; 373.15 K, 10100 kPa",880 ± 1 kg/m3
same,mass density,"[1]; 373.15 K, 15300 kPa",885 ± 1 kg/m3
same,mass density,"[1]; 373.15 K, 20100 kPa",888 ± 1 kg/m3
same,mass density,"[1]; 373.15 K, 25100 kPa",892 ± 1 kg/m3
same,mass density,"[1]; 373.15 K, 30100 kPa",896 ± 1 kg/m3
same,mass density,"[1]; 383.15 K, 100 kPa",860 ± 1 kg/m3
same,mass density,"[1]; 383.15 K, 2500 kPa",863 ± 1 kg/m3
same,mass density,"[1]; 383.15 K, 5100 kPa",866 ± 1 kg/m3
same,mass density,"[1]; 383.15 K, 10000 kPa",870 ± 1 kg/m3
same,mass density,"[1]; 383.15 K, 15100 kPa",875 ± 1 kg/m3
same,mass density,"[1]; 383.15 K, 20200 kPa",880 ± 1 kg/m3
same,mass density,"[1]; 383.15 K, 25100 kPa",884 ± 1 kg/m3
same,mass density,"[1]; 383.15 K, 30300 kPa",888 ± 1 kg/m3
same,mass density,"[1]; 393.15 K, 100 kPa",851 ± 1 kg/m3
same,mass density,"[1]; 393.15 K, 2600 kPa",853 ± 1 kg/m3
same,mass density,"[1]; 393.15 K, 5200 kPa",856 ± 1 kg/m3
same,mass density,"[1]; 393.15 K, 10000 kPa",861 ± 1 kg/m3
same,mass density,"[1]; 393.15 K, 15000 kPa",866 ± 1 kg/m3
same,mass density,"[1]; 393.15 K, 20100 kPa",870 ± 1 kg/m3
same,mass density,"[1]; 393.15 K, 25100 kPa",875 ± 1 kg/m3
same,mass density,"[1]; 393.15 K, 30400 kPa",879 ± 1 kg/m3
same,mass density,"[1]; 403.15 K, 100 kPa",840 ± 1 kg/m3
same,mass density,"[1]; 403.15 K, 2600 kPa",843 ± 1 kg/m3
same,mass density,"[1]; 403.15 K, 5000 kPa",846 ± 1 kg/m3
same,mass density,"[1]; 403.15 K, 10100 kPa",851 ± 1 kg/m3
same,mass density,"[1]; 403.15 K, 15100 kPa",856 ± 1 kg/m3
same,mass density,"[1]; 403.15 K, 20100 kPa",861 ± 1 kg/m3
same,mass density,"[1]; 403.15 K, 25100 kPa",866 ± 1 kg/m3
same,mass density,"[1]; 403.15 K, 30300 kPa",870 ± 1 kg/m3
same,mass density,"[1]; 413.15 K, 200 kPa",830 ± 1 kg/m3
same,mass density,"[1]; 413.15 K, 2500 kPa",833 ± 1 kg/m3
same,mass density,"[1]; 413.15 K, 5000 kPa",836 ± 1 kg/m3
same,mass density,"[1]; 413.15 K, 10200 kPa",842 ± 1 kg/m3
same,mass density,"[1]; 413.15 K, 14900 kPa",847 ± 1 kg/m3
same,mass density,"[1]; 413.15 K, 20000 kPa",852 ± 1 kg/m3
same,mass density,"[1]; 413.15 K, 25200 kPa",857 ± 1 kg/m3
same,mass density,"[1]; 413.15 K, 30000 kPa",861 ± 1 kg/m3
same,refractive index,[2],1.42844 ± 0.00031
